Assays:
[1] = molecular target: Serine/threonine-protein kinase MRCK alpha (Homo sapiens) (UniProt Q5VT25); assay: Inhibition of MRCKA assessed as enzyme activity at 1 uM relative to untreated control; parameters: scale not given: the % may be the effect or the level left
[2] = molecular target: Cyclin-dependent kinase 8 (Homo sapiens) (UniProt P49336); assay: Inhibition of CDK8 assessed as enzyme activity at 1 uM relative to untreated control; parameters: scale not given: the % may be the effect or the level left
Sequence of Cyclin-dependent kinase 8 (Homo sapiens) (P49336 whole entry): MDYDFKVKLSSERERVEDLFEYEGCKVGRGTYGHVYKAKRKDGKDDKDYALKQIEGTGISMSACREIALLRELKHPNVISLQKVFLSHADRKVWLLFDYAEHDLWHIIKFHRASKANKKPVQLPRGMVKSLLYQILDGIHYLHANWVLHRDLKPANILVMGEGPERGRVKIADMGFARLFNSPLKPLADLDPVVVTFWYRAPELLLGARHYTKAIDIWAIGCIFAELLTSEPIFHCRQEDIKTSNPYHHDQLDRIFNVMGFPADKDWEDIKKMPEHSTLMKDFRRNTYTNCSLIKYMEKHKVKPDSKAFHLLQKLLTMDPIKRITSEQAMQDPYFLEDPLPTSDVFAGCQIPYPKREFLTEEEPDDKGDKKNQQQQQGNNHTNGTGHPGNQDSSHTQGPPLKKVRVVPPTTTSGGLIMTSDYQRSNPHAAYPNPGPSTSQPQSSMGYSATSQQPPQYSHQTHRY

[3] = molecular target: BDNF/NT-3 growth factors receptor (Homo sapiens) (UniProt Q16620); assay: Inhibition of TRKB assessed as enzyme activity at 1 uM relative to untreated control; parameters: scale not given: the % may be the effect or the level left
[4] = molecular target: T1, Epidermal growth factor receptor (Homo sapiens) (UniProt P04626+P00533+Q15303+P21860); assay: Inhibition of EGFR S752-I759del mutant assessed as enzyme activity at 1 uM relative to untreated control; format: protein assay; parameters: scale not given: the % may be the effect or the level left
[5] = molecular target: Bone morphogenetic protein receptor type-2 (Homo sapiens) (UniProt Q13873); assay: Inhibition of BMPR2 assessed as enzyme activity at 1 uM relative to untreated control; parameters: scale not given: the % may be the effect or the level left
Sequence of Bone morphogenetic protein receptor type-2 (Homo sapiens) (Q13873 whole entry): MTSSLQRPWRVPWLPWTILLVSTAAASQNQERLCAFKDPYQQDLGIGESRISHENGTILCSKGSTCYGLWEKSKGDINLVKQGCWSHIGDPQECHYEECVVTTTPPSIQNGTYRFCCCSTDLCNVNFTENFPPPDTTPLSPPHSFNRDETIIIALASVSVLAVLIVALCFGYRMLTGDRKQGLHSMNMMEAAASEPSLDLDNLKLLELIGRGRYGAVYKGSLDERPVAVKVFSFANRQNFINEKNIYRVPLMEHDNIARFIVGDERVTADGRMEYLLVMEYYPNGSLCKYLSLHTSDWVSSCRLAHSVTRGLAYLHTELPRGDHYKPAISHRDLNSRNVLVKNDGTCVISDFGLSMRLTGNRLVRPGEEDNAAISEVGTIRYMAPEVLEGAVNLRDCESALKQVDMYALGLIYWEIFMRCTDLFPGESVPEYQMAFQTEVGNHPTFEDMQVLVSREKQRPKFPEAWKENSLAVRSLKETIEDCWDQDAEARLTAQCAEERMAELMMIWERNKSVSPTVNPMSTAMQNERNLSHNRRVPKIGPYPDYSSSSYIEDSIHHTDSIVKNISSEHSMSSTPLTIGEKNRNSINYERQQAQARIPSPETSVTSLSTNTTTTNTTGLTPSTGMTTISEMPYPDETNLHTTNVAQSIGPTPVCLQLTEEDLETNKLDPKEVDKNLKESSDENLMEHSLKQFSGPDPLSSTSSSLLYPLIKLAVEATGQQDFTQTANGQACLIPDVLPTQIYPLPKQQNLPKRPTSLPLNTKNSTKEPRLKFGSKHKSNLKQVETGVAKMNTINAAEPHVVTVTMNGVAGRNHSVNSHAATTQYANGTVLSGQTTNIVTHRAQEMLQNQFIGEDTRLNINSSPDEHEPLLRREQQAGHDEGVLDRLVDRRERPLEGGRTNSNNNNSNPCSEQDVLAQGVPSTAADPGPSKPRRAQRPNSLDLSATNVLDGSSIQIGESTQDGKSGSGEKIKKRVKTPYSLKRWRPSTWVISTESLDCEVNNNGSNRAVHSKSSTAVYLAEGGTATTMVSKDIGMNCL

[6] = molecular target: Receptor tyrosine-protein kinase erbB-4 (Homo sapiens) (UniProt Q15303); assay: Inhibition of ERBB4 assessed as enzyme activity at 1 uM relative to untreated control; parameters: scale not given: the % may be the effect or the level left
[7] = molecular target: Leukocyte tyrosine kinase receptor (Homo sapiens) (UniProt P29376); assay: Inhibition of LTK assessed as enzyme activity at 1 uM relative to untreated control; parameters: scale not given: the % may be the effect or the level left
[8] = molecular target: Calcium/calmodulin-dependent protein kinase type II subunit delta (Homo sapiens) (UniProt Q13557); assay: Inhibition of CAMK2D assessed as enzyme activity at 1 uM relative to untreated control; parameters: scale not given: the % may be the effect or the level left
[9] = molecular target: Tyrosine-protein kinase receptor Tie-1 (Homo sapiens) (UniProt P35590); assay: Inhibition of TIE1 assessed as enzyme activity at 1 uM relative to untreated control; parameters: scale not given: the % may be the effect or the level left
[10] = molecular target: Serine/threonine-protein kinase DCLK1 (Homo sapiens) (UniProt O15075); assay: Inhibition of DCAMKL1 assessed as enzyme activity at 1 uM relative to untreated control; parameters: scale not given: the % may be the effect or the level left
[11] = molecular target: Mitogen-activated protein kinase kinase kinase kinase 4 (Homo sapiens) (UniProt O95819); assay: Inhibition of MAP4K4 assessed as enzyme activity at 1 uM relative to untreated control; parameters: scale not given: the % may be the effect or the level left
[12] = molecular target: Fibroblast growth factor receptor 3 (Homo sapiens) (UniProt P22607); assay: Inhibition of FGFR3 assessed as enzyme activity at 1 uM relative to untreated control; parameters: scale not given: the % may be the effect or the level left
[13] = molecular target: Death-associated protein kinase 1 (Homo sapiens) (UniProt P53355); assay: Inhibition of DAPK1 assessed as enzyme activity at 1 uM relative to untreated control; parameters: scale not given: the % may be the effect or the level left
[14] = molecular target: Myotonin-protein kinase (Homo sapiens) (UniProt Q09013); assay: Inhibition of DMPK assessed as enzyme activity at 1 uM relative to untreated control; parameters: scale not given: the % may be the effect or the level left
[15] = molecular target: Serine/threonine-protein kinase PAK 5 (Homo sapiens) (UniProt Q9P286); assay: Inhibition of PAK7/PAK5 assessed as enzyme activity at 1 uM relative to untreated control; parameters: scale not given: the % may be the effect or the level left
[16] = molecular target: Serine/threonine-protein kinase Chk2 (Homo sapiens) (UniProt O96017); assay: Inhibition of CHEK2 assessed as enzyme activity at 1 uM relative to untreated control; parameters: scale not given: the % may be the effect or the level left
[17] = test system: Tyrosine-protein kinase ABL1 (Homo sapiens), P00519 [M351T]; assay: Inhibition of ABL1 M351T mutant assessed as enzyme activity at 1 uM relative to untreated control; parameters: scale not given: the % may be the effect or the level left
[18] = test system: Proto-oncogene tyrosine-protein kinase receptor Ret (Homo sapiens), P07949 [V804M]; assay: Inhibition of RET V804M mutant assessed as enzyme activity at 1 uM relative to untreated control; parameters: scale not given: the % may be the effect or the level left
Sequence of Proto-oncogene tyrosine-protein kinase receptor Ret (Homo sapiens), P07949 [V804M] (P07949 whole entry V804M): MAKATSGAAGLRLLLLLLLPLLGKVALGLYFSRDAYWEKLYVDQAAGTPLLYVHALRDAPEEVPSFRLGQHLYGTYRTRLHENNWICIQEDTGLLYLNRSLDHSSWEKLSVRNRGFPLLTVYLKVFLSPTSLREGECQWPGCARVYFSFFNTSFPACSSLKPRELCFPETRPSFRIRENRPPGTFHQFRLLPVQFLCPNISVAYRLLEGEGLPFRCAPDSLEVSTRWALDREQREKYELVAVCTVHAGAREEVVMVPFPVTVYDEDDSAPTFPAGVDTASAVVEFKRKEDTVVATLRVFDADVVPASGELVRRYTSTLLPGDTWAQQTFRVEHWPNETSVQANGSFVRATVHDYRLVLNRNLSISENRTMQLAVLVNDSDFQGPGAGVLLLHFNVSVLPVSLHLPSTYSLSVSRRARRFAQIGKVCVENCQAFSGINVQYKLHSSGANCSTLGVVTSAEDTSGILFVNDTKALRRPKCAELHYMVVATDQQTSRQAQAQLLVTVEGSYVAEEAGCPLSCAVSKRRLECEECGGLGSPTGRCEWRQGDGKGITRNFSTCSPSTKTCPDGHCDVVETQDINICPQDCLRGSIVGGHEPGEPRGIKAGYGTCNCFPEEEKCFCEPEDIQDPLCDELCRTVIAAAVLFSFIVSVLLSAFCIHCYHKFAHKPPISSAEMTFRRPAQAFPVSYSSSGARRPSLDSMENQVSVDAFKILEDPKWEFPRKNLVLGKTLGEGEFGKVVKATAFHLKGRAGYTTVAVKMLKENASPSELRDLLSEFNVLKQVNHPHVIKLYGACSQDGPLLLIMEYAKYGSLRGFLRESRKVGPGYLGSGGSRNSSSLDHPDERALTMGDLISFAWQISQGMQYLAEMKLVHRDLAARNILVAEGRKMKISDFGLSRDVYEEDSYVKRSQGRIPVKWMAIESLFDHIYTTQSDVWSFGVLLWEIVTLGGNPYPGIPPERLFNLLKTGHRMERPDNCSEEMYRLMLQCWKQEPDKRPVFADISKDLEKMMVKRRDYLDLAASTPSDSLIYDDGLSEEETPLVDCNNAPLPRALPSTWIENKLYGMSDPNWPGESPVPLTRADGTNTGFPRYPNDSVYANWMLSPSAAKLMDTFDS

[19] = molecular target: T1, Epidermal growth factor receptor (Homo sapiens); assay: Inhibition of EGFR L747-T751del,Sins mutant assessed as enzyme activity at 1 uM relative to untreated control; format: protein assay; parameters: scale not given: the % may be the effect or the level left
[20] = test system: Mast/stem cell growth factor receptor Kit (Homo sapiens), P10721 [V559D,V654A]; assay: Inhibition of KIT V559D,V654A mutant assessed as enzyme activity at 1 uM relative to untreated control; parameters: scale not given: the % may be the effect or the level left
[21] = molecular target: Casein kinase I isoform alpha-like (Homo sapiens) (UniProt Q8N752); assay: Inhibition of CSNK1A1L assessed as enzyme activity at 1 uM relative to untreated control; parameters: scale not given: the % may be the effect or the level left
Sequence of Casein kinase I isoform alpha-like (Homo sapiens) (Q8N752 whole entry, canonical isoform): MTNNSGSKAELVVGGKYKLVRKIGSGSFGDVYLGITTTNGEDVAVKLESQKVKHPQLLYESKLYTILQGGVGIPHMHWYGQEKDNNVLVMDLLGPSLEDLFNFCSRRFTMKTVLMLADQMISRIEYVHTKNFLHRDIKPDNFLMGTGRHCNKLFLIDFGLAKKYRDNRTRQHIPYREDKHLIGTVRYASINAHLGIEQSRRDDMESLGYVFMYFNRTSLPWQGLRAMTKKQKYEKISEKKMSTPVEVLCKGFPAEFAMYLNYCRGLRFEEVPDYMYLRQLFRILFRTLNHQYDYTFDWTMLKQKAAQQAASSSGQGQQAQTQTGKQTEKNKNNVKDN

[22] = test system: Mast/stem cell growth factor receptor Kit (Homo sapiens), P10721 [V559D,T670I]; assay: Inhibition of KIT V559D,T670I mutant assessed as enzyme activity at 1 uM relative to untreated control; parameters: scale not given: the % may be the effect or the level left
[23] = Elimination half life in Sprague-Dawley rat at 2 mg/kg, iv and 5 mg/kg, po; format: ADME, organism-based; conditions: in vivo, read-out: beta t1/2 (converted)
[24] = molecular target: Vascular endothelial growth factor receptor 1 (Homo sapiens) (UniProt P17948); assay: Inhibition of FLT1 assessed as enzyme activity at 1 uM relative to untreated control; parameters: scale not given: the % may be the effect or the level left
Sequence of Vascular endothelial growth factor receptor 1 (Homo sapiens) (P17948 whole entry): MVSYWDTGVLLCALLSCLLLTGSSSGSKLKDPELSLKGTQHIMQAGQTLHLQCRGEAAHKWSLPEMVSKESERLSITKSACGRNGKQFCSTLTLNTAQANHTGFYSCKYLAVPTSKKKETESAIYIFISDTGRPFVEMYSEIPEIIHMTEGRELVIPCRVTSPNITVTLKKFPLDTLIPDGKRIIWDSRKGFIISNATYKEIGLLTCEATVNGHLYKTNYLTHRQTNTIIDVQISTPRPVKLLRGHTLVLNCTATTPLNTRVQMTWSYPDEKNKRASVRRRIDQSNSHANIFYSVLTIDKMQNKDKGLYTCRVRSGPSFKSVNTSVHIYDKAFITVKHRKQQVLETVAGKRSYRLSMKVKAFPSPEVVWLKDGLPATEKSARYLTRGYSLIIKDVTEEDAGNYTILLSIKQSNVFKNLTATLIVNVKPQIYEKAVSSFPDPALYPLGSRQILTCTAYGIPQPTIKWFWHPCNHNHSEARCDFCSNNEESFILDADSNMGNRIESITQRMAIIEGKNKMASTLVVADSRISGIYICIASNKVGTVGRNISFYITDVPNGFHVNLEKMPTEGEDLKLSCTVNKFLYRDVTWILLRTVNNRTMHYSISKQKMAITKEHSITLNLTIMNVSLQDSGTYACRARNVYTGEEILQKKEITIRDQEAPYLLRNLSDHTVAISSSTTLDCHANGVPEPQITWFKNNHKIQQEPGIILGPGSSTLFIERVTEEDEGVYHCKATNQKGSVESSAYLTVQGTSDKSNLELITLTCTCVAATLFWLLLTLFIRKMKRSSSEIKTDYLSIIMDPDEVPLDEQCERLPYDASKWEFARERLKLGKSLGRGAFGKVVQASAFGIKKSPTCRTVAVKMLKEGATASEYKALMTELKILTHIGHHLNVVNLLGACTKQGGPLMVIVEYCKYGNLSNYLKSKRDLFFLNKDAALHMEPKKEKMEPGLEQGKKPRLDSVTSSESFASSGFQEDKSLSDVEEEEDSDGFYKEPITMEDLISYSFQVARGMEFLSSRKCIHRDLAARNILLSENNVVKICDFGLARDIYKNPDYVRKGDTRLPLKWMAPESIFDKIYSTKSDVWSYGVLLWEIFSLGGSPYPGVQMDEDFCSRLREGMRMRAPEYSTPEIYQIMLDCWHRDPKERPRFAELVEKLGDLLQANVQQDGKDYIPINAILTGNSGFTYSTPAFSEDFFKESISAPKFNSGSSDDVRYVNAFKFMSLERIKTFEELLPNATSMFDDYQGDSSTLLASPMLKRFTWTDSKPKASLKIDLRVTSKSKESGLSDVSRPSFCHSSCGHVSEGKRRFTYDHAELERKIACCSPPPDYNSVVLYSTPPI

[25] = molecular target: Aurora kinase B (Homo sapiens) (UniProt Q96GD4); assay: Inhibition of AURKB assessed as enzyme activity at 1 uM relative to untreated control; parameters: scale not given: the % may be the effect or the level left
[26] = test system: A-375; assay: Antitumor activity against human A375 SQ2 cells xenografted in CD1 mouse assessed as inhibition of tumor growth at 1 mg/kg, po qd for 14 days; format: functional; conditions: A-375, 336 h
[27] = Inhibition of FGFR3 G697C mutant assessed as enzyme activity at 1 uM relative to untreated control; parameters: scale not given: the % may be the effect or the level left
[28] = molecular target: Epithelial discoidin domain-containing receptor 1 (Homo sapiens) (UniProt Q08345); assay: Inhibition of DDR1 dyscoidin domain assessed as enzyme activity at 1 uM relative to untreated control; parameters: scale not given: the % may be the effect or the level left
[29] = molecular target: Serine/threonine-protein kinase 35 (Homo sapiens) (UniProt Q8TDR2); assay: Inhibition of STK35 assessed as enzyme activity at 1 uM relative to untreated control; parameters: scale not given: the % may be the effect or the level left
[30] = molecular target: Serine/threonine-protein kinase TAO3 (Homo sapiens) (UniProt Q9H2K8); assay: Inhibition of TAOK3 assessed as enzyme activity at 1 uM relative to untreated control; parameters: scale not given: the % may be the effect or the level left
[31] = molecular target: 3-phosphoinositide-dependent protein kinase 1 (Homo sapiens) (UniProt O15530); assay: Inhibition of PDPK1 assessed as enzyme activity at 1 uM relative to untreated control; parameters: scale not given: the % may be the effect or the level left
Sequence of 3-phosphoinositide-dependent protein kinase 1 (Homo sapiens) (O15530 whole entry): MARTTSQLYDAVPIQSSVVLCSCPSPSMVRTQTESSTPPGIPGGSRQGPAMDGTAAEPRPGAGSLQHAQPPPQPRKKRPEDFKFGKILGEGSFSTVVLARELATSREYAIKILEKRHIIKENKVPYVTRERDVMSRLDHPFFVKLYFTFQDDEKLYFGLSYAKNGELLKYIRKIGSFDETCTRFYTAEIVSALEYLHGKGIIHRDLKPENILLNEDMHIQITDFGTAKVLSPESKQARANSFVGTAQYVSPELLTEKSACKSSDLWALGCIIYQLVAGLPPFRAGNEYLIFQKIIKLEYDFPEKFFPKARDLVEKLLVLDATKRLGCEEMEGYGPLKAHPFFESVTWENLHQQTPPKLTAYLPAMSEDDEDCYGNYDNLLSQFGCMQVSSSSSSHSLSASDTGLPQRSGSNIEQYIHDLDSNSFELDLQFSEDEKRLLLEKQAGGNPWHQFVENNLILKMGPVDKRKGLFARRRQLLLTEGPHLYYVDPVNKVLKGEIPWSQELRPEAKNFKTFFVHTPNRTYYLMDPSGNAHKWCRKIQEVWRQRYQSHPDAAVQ

[32] = molecular target: Mitogen-activated protein kinase 8 (Homo sapiens) (UniProt P45983); assay: Inhibition of JNK1 assessed as enzyme activity at 1 uM relative to untreated control; parameters: scale not given: the % may be the effect or the level left
[33] = molecular target: Cyclin-dependent kinase 15 (Homo sapiens) (UniProt Q96Q40); assay: Inhibition of PFTAIRE2 assessed as enzyme activity at 1 uM relative to untreated control; parameters: scale not given: the % may be the effect or the level left
[34] = test system: Tyrosine-protein kinase ABL1 (Homo sapiens), P00519 [Q252H]; assay: Inhibition of ABL1 Q252H mutant assessed as enzyme activity at 1 uM relative to untreated control; parameters: scale not given: the % may be the effect or the level left
[35] = molecular target: Fibroblast growth factor receptor 2 (Homo sapiens) (UniProt P21802); assay: Inhibition of FGFR2 assessed as enzyme activity at 1 uM relative to untreated control; parameters: scale not given: the % may be the effect or the level left
[36] = molecular target: Phosphatidylinositol 4-phosphate 3-kinase C2 domain-containing subunit beta (Homo sapiens) (UniProt O00750); assay: Inhibition of PIK3C2B assessed as enzyme activity at 1 uM relative to untreated control; parameters: scale not given: the % may be the effect or the level left
[37] = molecular target: Calcium/calmodulin-dependent protein kinase type 1D (Homo sapiens) (UniProt Q8IU85); assay: Inhibition of CAMK1D assessed as enzyme activity at 1 uM relative to untreated control; parameters: scale not given: the % may be the effect or the level left

Cc1ccc2c(Nc3ccc(Cl)cc3)nccc2c1Nc1ncccc1-c1ncnc2[nH]cnc12.Cl.Cl.Cl
Activity [1]: 87% | Activity [2]: 100% | Activity [3]: 9.4% | Activity [4]: 90% | Activity [5]: 100% | Activity [6]: 98% | Activity [7]: 20% | Activity [8]: 79% | Activity [9]: 4.9% | Activity [10]: 80% | Activity [11]: 95% | Activity [12]: 100% | Activity [13]: 90% | Activity [14]: 100% | Activity [15]: 90% | Activity [16]: 100% | Activity [17]: 45% | Activity [18]: 96% | Activity [19]: 98% | Activity [20]: 100% | Activity [21]: 95% | Activity [22]: 77% | half-life [23]: 3.5 h | Activity [24]: 2.2% | Activity [25]: 85% | inhibition in vivo at 1 mg/kg [26]: 22% | Activity [27]: 100% | Activity [28]: 0.1% | Activity [29]: 92% | Activity [30]: 94% | Activity [31]: 100% | Activity [32]: 2.7% | Activity [33]: 80% | Activity [34]: 71% | Activity [35]: 38% | Activity [36]: 100% | Activity [37]: 100%
